The values that follow come from patent US8420132B2, “Synergistic anti-inflammatory and antioxidant dietary supplement compositions” (Laila Impex, priority 2007, dated 2013).

In assay [1] the test system is Freund's Complete Adjuvant (FCA) challenged rats. The experiment in a line: Freund's Complete Adjuvant induced inflammation (paw volume) in rats. The class given is in vivo. The settings on record: 50 mg/kg daily in 1% CMC for 28 days, FCA on day 14, paw volumes at 28th day. The protocol:
Test animals (rats, 200-300 g) of either sex were randomly distributed into different groups, with 5 animals in each group. Rats were supplemented daily with either demethylated curcuminoids (50 mg/kg) or enriched AKBA extract (50 mg/kg) or glucosamine (50 mg/kg), or reseveratrol (50 mg/kg), garlic extract (50 mg/kg) or ginger extract (50 mg/kg), or composition 7 (50 mg/kg) in 1% CMC for 28 days. The control group received same volume of vehicle (1% CMC); a standard drug, Prednisolone (10 mg/kg, orally) was used in the control treatment group. On the day 14, 100 μl of Freund's Complete Adjuvant (FCA) was injected subcutaneously in the sub planter region of the left hind paw. Blood samples were collected from each animal on the previous day of FCA challenge and at the day of termination of experiment i.e. 14 days after challenge. At the 28th day paw volumes were measured and after sacrificing the animals, liver tissues were excised and stored at −80° C. until further use.

The target in a further assay is T1, 5-LOX (Homo sapiens, UniProt P09917).
T1 sequence (P09917 1-674): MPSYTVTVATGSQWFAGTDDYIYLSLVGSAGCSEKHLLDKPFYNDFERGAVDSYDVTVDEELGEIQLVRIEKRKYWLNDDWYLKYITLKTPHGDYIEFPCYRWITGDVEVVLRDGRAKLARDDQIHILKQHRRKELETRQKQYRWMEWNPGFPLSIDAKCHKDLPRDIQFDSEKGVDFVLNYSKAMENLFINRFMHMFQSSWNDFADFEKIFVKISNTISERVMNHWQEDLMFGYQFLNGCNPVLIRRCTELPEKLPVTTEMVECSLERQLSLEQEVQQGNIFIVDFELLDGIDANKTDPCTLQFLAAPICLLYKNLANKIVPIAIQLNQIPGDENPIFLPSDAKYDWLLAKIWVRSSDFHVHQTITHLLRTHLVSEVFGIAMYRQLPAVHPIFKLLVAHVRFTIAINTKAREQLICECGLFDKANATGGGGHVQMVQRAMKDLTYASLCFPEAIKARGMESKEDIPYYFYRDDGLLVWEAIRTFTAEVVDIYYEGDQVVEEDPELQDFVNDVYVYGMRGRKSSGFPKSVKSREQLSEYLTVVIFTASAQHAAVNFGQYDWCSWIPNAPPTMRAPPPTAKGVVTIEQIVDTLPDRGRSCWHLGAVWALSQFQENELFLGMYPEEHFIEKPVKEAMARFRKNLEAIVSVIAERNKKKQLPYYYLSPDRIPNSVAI
As to conditions: of all the six boswellic acids; cited from earlier work.

The structures appear in SMILES notation.

For the molecule `Oc1ccc(/C=C/c2cc(O)cc(O)c2)cc1` [Reseveratrol, reseveratrol], the percent of inhibitions in assay [1] was 20.5%.
As to `N[C@H]1C(O)O[C@H](CO)[C@@H](O)[C@@H]1O` (stereo partly drawn) [Glucosamine, glucosamine], in assay [1], the percent of inhibitions is 5.5%.
Turning to `CC(=O)O[C@H]1CC[C@@]2(C)C(CC[C@]3(C)C2C(=O)C=C2C4[C@@H](C)[C@@H](C)CC[C@]4(C)CC[C@@]23C)[C@]1(C)C(=O)O` (stereo partly drawn) [AKBA, 3-O-acetyl-11-keto-β-boswellic acid], the “inhibitory activity against 5-LOX (in words)” value at 5-LOX is listed as “most pronounced inhibitory activity”.
